Data published in PubChem BioAssay (NCI).
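Following 48 hours of exposure in 96-well plates, responses at five concentrations were used to interpolate endpoints linearly. At the TGI there is no net growth.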

Key:
Assay in all cases: NCI tumour cell line growth inhibition, 48 h
786-0 renal = system: 786-0 renal
A498 renal = system: A498 renal
A549 NSCLC = system: A549 NSCLC
ACHN renal = system: ACHN renal
BT-549 breast = system: BT-549 breast
CAKI-1 renal = system: CAKI-1 renal
CCRF-CEM leukemia = system: CCRF-CEM leukemia
COLO 205 colon = system: COLO 205 colon
DU-145 prostate = system: DU-145 prostate
EKVX NSCLC = system: EKVX NSCLC
HCC-2998 colon = system: HCC-2998 colon
HCT-116 colon = system: HCT-116 colon
HCT-15 colon = system: HCT-15 colon
HL-60(TB) leukemia = system: HL-60(TB) leukemia
HOP-62 NSCLC = system: HOP-62 NSCLC
HOP-92 NSCLC = system: HOP-92 NSCLC
K-562 leukemia = system: K-562 leukemia
KM12 colon = system: KM12 colon
LOX IMVI melanoma = system: LOX IMVI melanoma
M14 melanoma = system: M14 melanoma
MCF7 breast = system: MCF7 breast
MDA-MB-435 = system: MDA-MB-435
MDA-N = system: MDA-N
MOLT-4 leukemia = system: MOLT-4 leukemia
NCI-H226 lung = system: NCI-H226 lung
NCI-H23 lung = system: NCI-H23 lung
NCI-H460 lung = system: NCI-H460 lung
NCI/ADR-RES ovarian = system: NCI/ADR-RES ovarian
OVCAR-3 ovarian = system: OVCAR-3 ovarian
OVCAR-4 ovarian = system: OVCAR-4 ovarian
OVCAR-5 ovarian = system: OVCAR-5 ovarian
OVCAR-8 ovarian = system: OVCAR-8 ovarian
PC-3 prostate = system: PC-3 prostate
RPMI-8226 leukemia = system: RPMI-8226 leukemia
RXF 393 renal = system: RXF 393 renal
SF-295 CNS = system: SF-295 CNS
SK-MEL-2 melanoma = system: SK-MEL-2 melanoma
SK-MEL-28 melanoma = system: SK-MEL-28 melanoma
SK-MEL-5 melanoma = system: SK-MEL-5 melanoma
SK-OV-3 ovarian = system: SK-OV-3 ovarian
SN12C renal = system: SN12C renal
SNB-19 CNS = system: SNB-19 CNS
SNB-75 CNS = system: SNB-75 CNS
SR leukemia = system: SR leukemia
SW-620 colon = system: SW-620 colon
T-47D breast = system: T-47D breast
TK-10 renal = system: TK-10 renal
U251 CNS = system: U251 CNS
UACC-257 melanoma = system: UACC-257 melanoma
UACC-62 melanoma = system: UACC-62 melanoma
UO-31 renal = system: UO-31 renal
HT29 colon = system: HT29 colon
IGROV1 ovarian = system: IGROV1 ovarian
MDA-MB-231 breast = system: MDA-MB-231 breast
SF-539 CNS = system: SF-539 CNS
MALME-3M melanoma = system: MALME-3M melanoma
NCI-H522 lung = system: NCI-H522 lung

Measured: TGI

COC(=O)C1(C(=O)OC)N=C(C)OC1c1ccoc1 (configuration not stated)
not listed: HT29 colon | IGROV1 ovarian | MDA-MB-231 breast | SF-539 CNS | MALME-3M melanoma | NCI-H522 lung
> 100 µM: all other assays above

O=c1[nH]c2ccccc2c(O)c1/C=N/C(=S)NCCc1ccccc1
not listed: A498 renal | CCRF-CEM leukemia | K-562 leukemia | RPMI-8226 leukemia | RXF 393 renal | SR leukemia | MALME-3M melanoma | NCI-H522 lung
> 100 µM: all other assays above

COc1ccc2nc3n(c2c1)C(c1c(F)cccc1Cl)SC3 (configuration not stated)
not listed: NCI-H226 lung | HT29 colon | MDA-MB-231 breast | SF-539 CNS | MALME-3M melanoma | NCI-H522 lung
> 100 µM: all other assays above

N#CC(C#N)N=Nc1ccc(-c2nc3ccccc3s2)cc1
9.37 µM: SK-MEL-5 melanoma
15.2 µM: ACHN renal | NCI/ADR-RES ovarian
32.1 µM: M14 melanoma
63.1 µM: MDA-N
4.64 µM: HOP-92 NSCLC
16.7 µM: SK-MEL-2 melanoma
3.4 µM: RPMI-8226 leukemia
22.2 µM: IGROV1 ovarian
21.8 µM: UO-31 renal
7.99 µM: MALME-3M melanoma
11.2 µM: UACC-257 melanoma
19.6 µM: DU-145 prostate
43.8 µM: OVCAR-8 ovarian
15.8 µM: RXF 393 renal
22 µM: 786-0 renal
14.9 µM: MCF7 breast
14 µM: COLO 205 colon
3.68 µM: MOLT-4 leukemia
19.2 µM: BT-549 breast
22.7 µM: SW-620 colon
13.5 µM: HCT-15 colon
25.8 µM: SF-539 CNS
7.8 µM: NCI-H522 lung
10.3 µM: SR leukemia
10.1 µM: PC-3 prostate
8.72 µM: NCI-H23 lung
22.8 µM: EKVX NSCLC
10.8 µM: SN12C renal
8.21 µM: T-47D breast
13.6 µM: HCT-116 colon
20.4 µM: HT29 colon | LOX IMVI melanoma
54.8 µM: SNB-75 CNS
35.9 µM: SK-MEL-28 melanoma
20.7 µM: CAKI-1 renal
50.5 µM: OVCAR-5 ovarian
78.6 µM: OVCAR-4 ovarian
23.8 µM: A498 renal
39.9 µM: MDA-MB-435
11.3 µM: TK-10 renal
